Measured values as given in patent US20250179103A1, “6-OXODECAHYDROPYRROLO[1,2-A][1,5]DIAZOCINE AND 6-OXODECAHYDRO-4H-PYRROLO[2,1-D][1,5]THIAZOCINE DERIVATIVES AS STAT3 AND STAT6 MODULATORS FOR THE TREATMENT OF CANCER AND INFLAMMATORY CONDITIONS” (Recludix Pharma, Inc., priority 2022, published 2025).

Tests used:
[1] = test system: pY705-STAT3 in Peripheral Blood Mononuclear Cells (PBMC); assay: MSD-pSTAT-PBMC Assay (pSTAT3, IL-6 stimulated); assay type: cell-based, Human; conditions: Homo sapiens, compound 3 hrs, then 10 ng/mL IL-6 for 10 min
Description: Cryopreserved Peripheral Blood Mononuclear Cells (PBMC) are from AllCells. Recombinant Human IL-4 and IL-6 are from Peprotech. Mouse monoclonal anti-STAT3 antibody, rabbit monoclonal anti-pY705-STAT3 antibody, rabbit monoclonal Anti-pY641-STAT6 antibody, and lysis buffer are from Cell Signaling Technology (CST). Mouse monoclonal anti-STAT6 antibody is from BioLegend. Assay plates, blocker, and anti-rabbit secondary antibody are from Meso Scale Discovery (MSD).
Cryopreserved PBMCs were thawed out and allowed to recover overnight in IMDM+10% heat-inactivated FBS prior to plating 50,000 (STAT3) or 25,000 (STAT6) cells per well in 96-well U-bottom tissue culture plates. Cells were treated with compound for 3 hrs, then stimulated with 10 ng/mL IL-6 (STAT3) or 1 ng/mL IL-4 (STAT6) for 10 min. Cells were then spun down and washed with ice-cold PBS prior to lysing the cell pellet with 1× lysis buffer (CST) with 1×HALT protease and phosphatase inhibitor cocktail (Thermo). Lysates were transferred to and incubated overnight at 4° C. with shaking in QuickPlex 96-well high bind assay plates (MSD) pre-coated overnight with 30 μL per well of 0.6 μg/mL mouse monoclonal anti-STAT3 antibody (STAT3) or 2 μg/mL mouse monoclonal anti-STAT6 antibody (STAT6) in 1×PBS, and pre-blocked for 1 hour with 3% Blocker-A (MSD). Captured protein in the assay plates were then washed and probed with 25 μL per well of 0.25 μg/ml rabbit monoclonal anti-pY705-STAT3 antibody (STAT3) or […] rabbit monoclonal Anti-pY641-STAT6 antibody (STAT6) in 1% Blocker-A for 1 hour at room temperature with shaking, then washed and probed with 25 ul per well of 1 ug/ml Sulfo-TAG Labeled Goat Anti-Rabbit Antibody (MSD) in 1% Blocker-A for 1 hour at room temperature with shaking. Assay plates were then washed and 150 μL of 1× Read Buffer-T (MSD) was added to each well prior to reading on an SQ120 MSD Plate Reader. Assay signal from each sample was subtracted by the signal from unstimulated control wells and normalized to DMSO control wells. IC50 values were calculated using Graph Pad Prism Dose-Response Nonlinear Regression with variable slope. For both pSTAT3 and pSTAT6 A=≤100 nM; B=>100-1000 nM; C=>1000-3000 nM; and D=>3 μM.

[2] = test system: pY641-STAT6 in Peripheral Blood Mononuclear Cells (PBMC); assay: MSD-pSTAT-PBMC Assay (pSTAT6, IL-4 stimulated); assay type: cell-based, Human; conditions: Homo sapiens, compound 3 hrs, then 1 ng/mL IL-4 for 10 min
Summary of the method: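 Human PBMCs were preincubated 3 h with compound, then stimulated 10 min with 10 ng/mL IL-6 (pY705-STAT3) or 1 ng/mL IL-4 (pY641-STAT6). Lysates were read by MSD sandwich immunoassay, capturing total STAT and detecting phospho-STAT. Signal was unstimulated-subtracted and DMSO-normalised, with variable-slope IC50 binned A–D.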

`CC(=O)N1CC[C@H]2CC[C@@H](C(=O)N3C[C@H](c4ccccc4)[C@@H](C#N)C3)N2C(=O)[C@@H](NC(=O)c2ccc3ccc(C(F)(F)P(=O)(OCOC(=O)C(C)(C)C)OCOC(=O)C(C)(C)C)cc3c2)C1` (mixture of isomers) [Compound 323, ((((7-(((5S,8S, 10aR)-3-acetyl-8-((rel- trans)-3-cyano-4-phenyl-pyrrolidine-1-carbonyl)-6-oxodecahydro-pyrrolo[1,2-a][1,5]diazocin-5-yl)carbamoyl)naphthalen-2-yl)difluoro-methyl)phos-phoryl)bis(oxy)) bis(methylene) bis(2,2-dimethylpro-panoate)] showed an IC50 [1] of 1000 to 3000 nM and an IC50 [2] of no more than 100 nM.

In the case of `CCCC(=O)SCCOP(=O)(OCCSC(=O)CCC)C(F)(F)c1ccc2ccc(C(=O)N[C@H]3CN(C(=O)c4n[nH]c5ccc(C)cc45)CC[C@H]4CC[C@@H](C(=O)N5CC(c6ccccc6)[C@@H](C#N)C5)N4C3=O)cc2c1` (relative stereo) [Compound 336, S,S′-(((((7-(((5S,8S,10aR)-8-((rel-trans)-3-cyano-4-phenylpyrrolidine-1-carbonyl)-3-(5-methyl-1H-indazole-3-carbonyl)-6-oxodecahydropyrrolo[1,2-a][1,5]diazocin-5-yl)carbamoyl)naphthalen-2-yl)difluoromethyl)phosphoryl)bis(oxy))bis(ethane-2,1-diyl)) dibutanethioate], the IC50 [1] is reported as 1000 to 3000 nM and the IC50 [2] is reported as no more than 100 nM.

For `CC(C)(C)C(=O)SCCOP(=O)(OCCSC(=O)C(C)(C)C)C(F)(F)c1ccc2ccc(C(=O)N[C@H]3CN(CC(F)F)CC[C@H]4CC[C@@H](C(=O)N5CC[C@H](c6ccccc6)[C@@H](C#N)C5)N4C3=O)cc2c1` (relative stereo) [Compound 340, S,S′-(((((7-(((5S,8S,10aR)-8-((rel-trans)-3-cyano-4-phenylpiperidine-1-carbonyl)-3-(2,2-difluoroethyl)-6-oxodecahydropyrrolo[1,2-a][1,5]diazocin-5-yl)carbamoyl)naphthalen-2-yl)difluoromethyl)phosphoryl)bis(oxy))bis (ethane-2,1-diyl))bis(2,2-dimethylpropanethioate)], the IC50 [1] was greater than 3000 nM and the IC50 [2] was greater than 3000 nM.

`CC(C)CC(=O)SCCOP(=O)(OCCSC(=O)CC(C)C)C(F)(F)c1ccc2ccc(C(=O)N[C@H]3CN(CC(F)F)CC[C@H]4CC[C@@H](C(=O)N5C[C@H](c6cc(F)cc(F)c6)[C@@H](C#N)C5)N4C3=O)cc2c1` (relative stereo) [Compound 341, S,S′-(((((7-(((5S,8S,10aR)-8-((rel-trans)-3-cyano-4-(3,5-difluorophenyl)pyrrolidine-1-carbonyl)-3-(2,2-difluoroethyl)-6-oxodecahydropyrrolo[1,2-a][1,5]diazocin-5-yl)carbamoyl)naphthalen-2-yl)difluoromethyl)phosphoryl)bis(oxy))bis(ethane-2,1-diyl))bis(3-methylbutanethioate)] showed an IC50 [1] greater than 3000 nM and an IC50 [2] of 1000 to 3000 nM.

`COC(=O)N1CC[C@H]2CC[C@@H](C(=O)N3C[C@H](c4ccccc4)[C@@H](C#N)C3)N2C(=O)[C@@H](NC(=O)c2cc3cc(C(F)(F)P(=O)(OCOC(=O)C(C)(C)C)OCOC(=O)C(C)(C)C)ccc3s2)C1` (relative stereo) [Compound 349, ((((2-(((5S,8S,10aR)-8-((rel-trans)-3-cyano-4-phenylpyrrolidine-1-carbonyl)-3-(methoxycarbonyl)-6-oxodecahydropyrrolo[1,2-a][1,5]diazocin-5-yl)carbamoyl)benzo[b]thiophen-5-yl)difluoromethyl)phosphoryl)bis(oxy)) bis(methylene) bis(2,2-dimethylpropanoate)] showed an IC50 [1] of 100 to 1000 nM and an IC50 [2] of no more than 100 nM.

Compound `CCN1CC[C@H]2CC[C@@H](C(=O)N3C[C@@H](C#N)[C@H](c4ccccc4)C3)N2C(=O)[C@@H](NC(=O)c2cc3cc(C(F)(F)P(=O)(OCOC(=O)C(C)(C)C)OCOC(=O)C(C)(C)C)ccc3s2)C1` (single isomer, unassigned) [Compound 281, ((((2-(((5S,8S, 10aR)-8-((3S,4R or 3R,4S)-3-cyano-4-phenyl-pyrrolidine-1-carbonyl)-3-ethyl-6-oxodecahydro-pyrrolo[1,2-a][1,5]diazocin-5-yl)carbamoyl)benzo[b]thiophen-5-yl)difluoro-methyl)phos-phoryl)bis(oxy)) bis(methylene) bis(2,2-dimethyl-propanoate)] has an IC50 [1] of no more than 100 nM and an IC50 [2] of no more than 100 nM.

`CC(=O)N1CC[C@H]2CC[C@@H](C(=O)N3C[C@@H](C#N)[C@H](c4ccccc4)C3)N2C(=O)[C@@H](NC(=O)c2cc3cc(C(F)(F)P(=O)(OCOC(=O)OC(C)C)OCOC(=O)OC(C)C)ccc3s2)C1` (single isomer, unassigned) [Compound 282, ((((2-(((5S,8S, 10aR)-3-acetyl-8-((3S,4R or 3R,4S)-3-cyano-4-phenyl-pyrrolidine-1-carbonyl)-6-oxodecahydro-pyrrolo[1,2-a][1,5]diazocin-5-yl)carbamoyl)benzo[b]thiophen-5-yl)difluoro-methyl)phos-phoryl)bis(oxy)) bis(methylene) diisopropyl bis(carbonate)] showed an IC50 [1] of 1000 to 3000 nM and an IC50 [2] of no more than 100 nM.

Work on `CC(=O)N1CC[C@H]2CC[C@@H](C(=O)N3C[C@H](c4ccccc4)[C@@H](C#N)C3)N2C(=O)[C@@H](NC(=O)c2cc3cc(C(F)(F)P(=O)(OCOC(=O)OC(C)C)OCOC(=O)OC(C)C)ccc3s2)C1` (single isomer, unassigned) [Compound 285, ((((2-(((5S,8S, 10aR)-3-acetyl-8-((3R,4S or 3S,4R)-3-cyano-4-phenyl-pyrrolidine-1-carbonyl)-6-oxodecahydro-pyrrolo[1,2-a][1,5]diazocin-5-yl)carbamoyl)benzo[b]thiophen-5-yl)difluoro-methyl)phos-phoryl)bis(oxy)) bis(methylene) diisopropyl bis(carbonate)] yielded an IC50 [1] of 100 to 1000 nM and an IC50 [2] of no more than 100 nM.

For `CCCC(=O)SCCOP(=O)(OCOC(=O)OC(C)C)C(F)(F)c1ccc2ccc(C(=O)N[C@H]3CN(C(C)=O)CC[C@H]4CC[C@@H](C(=O)N5C[C@H](c6cc[nH]c(=O)c6)[C@@H](C#N)C5)N4C3=O)cc2c1` (single isomer, unassigned) [Compound 303, S-(2-((((7-(((5S,8S, 10aR)-3-acetyl-8-((3R,4S or 3S,4R)-3-cyano-4-(2-oxo-1,2-dihydro-pyridin-4-yl)pyrrolidine-1-carbonyl)-6-oxodecahydro-pyrrolo[1,2-a][1,5]diazocin-5-yl)carbamoyl)naphthalen-2-yl)difluoro-methyl)(((iso-propoxy-carbonyl)oxy)methoxy)phosphoryl)oxy)ethyl) butanethioate], the IC50 [1] was 1000 to 3000 nM and the IC50 [2] was 100 to 1000 nM.

With `CCCC(=O)SCCOP(=O)(OCCSC(=O)CCC)C(F)(F)c1ccc2ccc(C(=O)N[C@H]3CN(C(C)=O)CC[C@H]4CC[C@@H](C(=O)N5C[C@H](c6cc[nH]c(=O)c6)[C@@H](C#N)C5)N4C3=O)cc2c1` (single isomer, unassigned) [Compound 304, S,S′-(((((7-(((5S,8S, 10aR)-3-acetyl-8-((3R,4S or 3S,4R)-3-cyano-4-(2-oxo-1,2-dihydro-pyridin-4-yl)pyrrolidine-1-carbonyl)-6-oxodecahydro-pyrrolo[1,2-a][1,5]diazocin-5-yl)carbamoyl)naphthalen-2-yl)difluoro-methyl)phos-phoryl)bis(oxy))bis(ethane-2,1-diyl))di-butanethioate] the IC50 [1] was greater than 3000 nM and the IC50 [2] was 100 to 1000 nM.

For `CC(=O)N1CC[C@H]2CC[C@@H](C(=O)N3C[C@@H](C#N)[C@H](c4cc[nH]c(=O)c4)C3)N2C(=O)[C@@H](NC(=O)c2ccc3ccc(C(F)(F)P(=O)(OCCSC(=O)CC(C)C)OCCSC(=O)CC(C)C)cc3c2)C1` (single isomer, unassigned) [Compound 306, S,S′-(((((7-(((5S,8S, 10aR)-3-acetyl-8-((3S,4R or 3r,4S)-3-cyano-4-(2-oxo-1,2-dihydro-pyridin-4-yl)pyrrolidine-1-carbonyl)-6-oxodecahydro-pyrrolo[1,2-a][1,5]diazocin-5-yl)carbamoyl)naphthalen-2-yl)difluoro-methyl)phos-phoryl)bis(oxy))bis(ethane-2,1-diyl)) bis(3-methylbutane-thioate)], the IC50 [1] was greater than 3000 nM and the IC50 [2] was 1000 to 3000 nM.
